Source: US7157596B2, “Inhibitors of serine protease activity of matriptase or MTSP1” (Dendreon Corporation, priority 2000, dated 2007)

Tests used:
Format in all cases: biochemical
[1] = biological target: T1, human α-thrombin (Homo sapiens, UniProt P00734); experiment: In vitro enzyme assay for specificity: Thrombin (fIIa); conditions: 30 min preincubation; substrate Pefachrome t-PA
T1 construct: Purified human α-thrombin was obtained from Enzyme Research Laboratories, Inc; purchased Enzyme Research Laboratories, Inc
Procedure: (§1) The ability of compounds to act as a selective inhibitor of matriptase activity was assessed by determining the concentration of test-compound which inhibited the activity of matriptase by 50%, (IC50) as described in Example A, and comparing IC50 value for matriptase to that determined for all or some of the following serine proteases: thrombin, recombinant tissue plasminogen activator (rt-PA), plasmin, activated protein C, chymotrypsin, factor Xa and trypsin.
(§2) The buffer used for all assays was HBSA (10 mM HEPES, pH 7.5, 150 mM sodium chloride, 0.1% bovine serum albumin).
(§3) The assay for IC50 determinations was conducted by combining in appropriate wells of a Corning microtiter plate, 50 microliters of HBSA, 50 microliters of the test compound at a specified concentration (covering a broad concentration range) diluted in HBSA (or HBSA alone for V0 (uninhibited velocity) measurement), and 50 microliters of the enzyme diluted in HBSA. Following a 30 minute incubation at ambient temperature, 50 microliters of the substrate at the concentrations specified below were added to the wells, yielding a final total volume of 200 microliters. The initial velocity of chromogenic substrate hydrolysis was measured by the change in absorbance at 405 nm using a Thermo Max® Kinetic Microplate Reader over a 5 minute period in which less than 5% of the added substrate was utilized. The concentration of added inhibitor which caused a 50% decrease in the initial rate of hydrolysis was defined as the IC50 value.
Enzyme activity was determined using the chromogenic substrate, Pefachrome t-PA (CH3SO2-D-hexahydrotyrosine-glycyl-L-Arginine-p-nitroaniline, obtained from Pentapharm Ltd.). The substrate was reconstituted in deionized water prior to use. Purified human α-thrombin was obtained from Enzyme Research Laboratories, Inc. The buffer used for all assays was HBSA (10 mM HEPES, pH 7.5, 150 mM sodium chloride, 0.1% bovine serum albumin).
The initial velocity of Pefachrome t-PA hydrolysis was measured by the change in absorbance at 405 nm using a Thermo Max® Kinetic Microplate Reader over a 5 minute period in which less than 5% of the added substrate was utilized. The concentration of added inhibitor which caused a 50% decrease in the initial rate of hydrolysis was defined as the IC50 value.

[2] = biological target: T2, Factor Xa (Homo sapiens, UniProt P00742); experiment: In vitro enzyme assay for specificity: Factor Xa; conditions: 30 min preincubation; substrate S-2765; read-out: FXa IC50 30 Min
T2 construct: purchased Enzyme Research Laboratories, Inc. (South Bend, Ind.)
T2 sequence (P00742 235-488 limits assumed): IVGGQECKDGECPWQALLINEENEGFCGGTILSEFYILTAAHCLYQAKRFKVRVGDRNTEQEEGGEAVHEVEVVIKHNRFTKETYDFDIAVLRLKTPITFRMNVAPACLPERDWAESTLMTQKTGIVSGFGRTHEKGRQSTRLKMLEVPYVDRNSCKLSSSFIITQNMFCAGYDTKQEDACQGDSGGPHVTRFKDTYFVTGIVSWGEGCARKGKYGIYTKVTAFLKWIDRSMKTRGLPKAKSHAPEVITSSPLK
T2 sequence (P00742 41-179 partner limits assumed): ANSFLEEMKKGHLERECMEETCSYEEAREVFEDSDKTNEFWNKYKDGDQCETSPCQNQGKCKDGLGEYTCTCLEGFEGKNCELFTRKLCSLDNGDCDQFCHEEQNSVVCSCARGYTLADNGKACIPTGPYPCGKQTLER
Procedure: as §1, §2, §3
Factor Xa catalytic activity was determined using the chromogenic substrate S-2765 (N-benzyloxycarbonyl-D-arginine-L-glycine-L-arginine-p-nitro aniline), obtained from DiaPharma Group (Franklin, Ohio). All substrates were reconstituted in deionized water prior to use. […] Purified human Factor X was obtained from Enzyme Research Laboratories, Inc. (South Bend, Ind.) and Factor Xa (FXa) was activated and prepared from it as described [Bock, P. E., Craig, P. A., Olson, S. T., and Singh, P. Arch. Biochem. Biophys. 273:375–388 (1989)]. The enzyme was diluted into HBSA prior to assay in which the final concentration was 0.25 nM.

[3] = biological target: T3, recombinant serine protease domain of matriptase or MTSP1 (rMAP) (Homo sapiens, UniProt Q9Y5Y6); experiment: Amidolytic assay for inhibition of serine protease activity of matriptase or MTSP1 (rMAP); conditions: 30 min preincubation of compound and rMAP; substrate S-2765
T3 construct: host or cells: Pichia pastoris SMD1168 / pPIC9K-MTSP1
T3 sequence (Q9Y5Y6 615-855): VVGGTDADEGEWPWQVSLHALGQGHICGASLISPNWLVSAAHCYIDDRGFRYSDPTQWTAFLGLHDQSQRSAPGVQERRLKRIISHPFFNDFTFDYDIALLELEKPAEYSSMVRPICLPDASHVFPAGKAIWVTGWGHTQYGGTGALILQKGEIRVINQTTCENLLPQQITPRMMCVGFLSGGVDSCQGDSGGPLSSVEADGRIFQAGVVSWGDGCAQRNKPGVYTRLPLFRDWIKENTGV
Procedure: The ability of the compounds of the present invention to act as inhibitors of rMAP catalytic activity was assessed by determining the inhibitor-induced inhibition of amidolytic activity by the MAP, as measured by IC50 values.
The assay buffer was HBSA (10 mM Hepes, 150 mM sodium chloride, pH 7.4, 0.1% bovine serum albumin). All reagents were from Sigma Chemical Co. (St. Louis, Mo.), unless otherwise indicated.
Two IC50 assays (a) one at either 30-minutes or 60-minutes (a 30-minute or a 60-minute preincubation of test compound and enzyme) and (b) one at 0-minutes (no preincubation of test compound and enzyme) were conducted. […] Following either a 30-minute or a 60-minute incubation at ambient temperature, the assay was initiated by the addition of 50 microliters of the substrate S-2765 (N-α-Benzyloxycarbonyl-D-arginyl-L-glycyl-L-arginine-p-nitroaniline dihydrochloride; DiaPharma Group, Inc.; Franklin, Ohio) to each well, yielding a final assay volume of 200 microliters and a final substrate concentration of 100 μM (about 4-times Km). Before addition to the assay mixture, S-2765 was reconstituted in deionized water and diluted in HBSA. For the IC50 assay at 0 minutes; the same reagents were combined: 50 microliters of HBSA, 50 microliters of the test compound, diluted (covering the identical concentration range) in HBSA (or HBSA alone for uninhibited velocity measurement), and 50 microliters of the substrate S-2765. The assay was initiated by the addition of 50 microliters of rMAP. The final concentrations of all components were identical in both IC50 assays (at 30- or 60- and 0-minute).
The initial velocity of chromogenic substrate hydrolysis was measured in both assays by the change of absorbance at 405 nm using a Thermo Max® Kinetic Microplate Reader (Molecular Devices) over a 5 minute period, in which less than 5% of the added substrate was utilized. The concentration of added inhibitor, which caused a 50% decrease in the initial rate of hydrolysis was defined as the respective IC50 value in each of the two assays (30- or 60-minutes and 0-minute).

[4] = biological target: T4, human plasmin (Homo sapiens, UniProt P00747); experiment: In vitro enzyme assay for specificity: Plasmin; conditions: 30 min preincubation; substrate S-2366
T4 construct: Purified human plasmin was obtained from Enzyme Research Laboratories, Inc; purchased Enzyme Research Laboratories, Inc
T4 sequence (P00747 581-810 limits assumed): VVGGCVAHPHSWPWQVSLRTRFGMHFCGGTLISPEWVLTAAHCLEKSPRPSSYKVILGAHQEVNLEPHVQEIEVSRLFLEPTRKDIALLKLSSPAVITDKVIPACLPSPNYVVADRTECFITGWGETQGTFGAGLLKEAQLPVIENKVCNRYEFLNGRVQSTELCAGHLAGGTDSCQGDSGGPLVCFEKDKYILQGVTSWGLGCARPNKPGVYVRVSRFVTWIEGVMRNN
T4 sequence (P00747 97-580 partner limits assumed): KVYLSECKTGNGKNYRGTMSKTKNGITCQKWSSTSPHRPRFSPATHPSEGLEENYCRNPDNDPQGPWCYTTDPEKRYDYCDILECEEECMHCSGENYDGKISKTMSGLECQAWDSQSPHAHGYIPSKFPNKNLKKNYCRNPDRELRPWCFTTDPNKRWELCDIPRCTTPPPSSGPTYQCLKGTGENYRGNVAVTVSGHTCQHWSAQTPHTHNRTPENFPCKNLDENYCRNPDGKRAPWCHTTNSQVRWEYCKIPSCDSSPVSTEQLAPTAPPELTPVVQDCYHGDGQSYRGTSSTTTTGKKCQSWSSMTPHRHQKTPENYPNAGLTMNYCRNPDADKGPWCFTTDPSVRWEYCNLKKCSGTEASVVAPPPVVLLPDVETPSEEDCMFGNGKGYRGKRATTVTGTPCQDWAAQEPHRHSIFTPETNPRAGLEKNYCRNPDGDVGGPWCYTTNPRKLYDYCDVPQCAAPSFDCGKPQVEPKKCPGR
Procedure: as §1, §2, §3
Plasmin catalytic activity was determined using the chromogenic substrate, S-2366 [L-pyroglutamyl-L-prolyl-L-arginine-p-nitroaniline hydrochloride], which was obtained from DiaPharma group. The substrate was made up in deionized water followed by dilution in HBSA prior to the assay in which the final concentration was 300 micromolar (about 2.5-times Km). Purified human plasmin was obtained from Enzyme Research Laboratories, Inc. The enzyme was diluted into HBSA prior to assay in which the final concentration was 1.0 nM.

[5] = biological target: T5, bovine pancreatic trypsin (Bos taurus, UniProt P00760); experiment: In vitro enzyme assay for specificity: Trypsin; conditions: 30 min preincubation; substrate S-2222; read-out: Thypsin IC50 30 Min
T5 construct: Purified (3×-crystallized; TRL3) bovine pancreatic trypsin was obtained from Worthington Biochemical Corp; purchased Worthington Biochemical Corp. TRL3; host or cells: bovine pancreas
T5 sequence (P00760 24-246): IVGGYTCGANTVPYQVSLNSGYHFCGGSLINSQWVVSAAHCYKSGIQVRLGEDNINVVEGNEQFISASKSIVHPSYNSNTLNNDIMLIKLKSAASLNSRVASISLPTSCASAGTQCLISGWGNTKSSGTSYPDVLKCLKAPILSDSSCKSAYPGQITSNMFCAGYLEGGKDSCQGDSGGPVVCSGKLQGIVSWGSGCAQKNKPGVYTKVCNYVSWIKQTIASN
Procedure: as §1, §2, §3
Trypsin catalytic activity was determined using the chromogenic substrate, S-2222 (benzoyl-L-isoleucine-L-glutamic acid-[gamma-methyl ester]-L-arginine-p-nitroanilide), which was obtained from DiaPharma Group. […] Purified (3×-crystallized; TRL3) bovine pancreatic trypsin was obtained from Worthington Biochemical Corp. The enzyme was reconstituted in deionized water and diluted into HBSA prior to assay in which the final concentration was 0.5 nM.

| SMILES | IC50 [1] [nM] | IC50 [2] [nM] | IC50 [3] [nM] | IC50 [4] [nM] | IC50 [5] [nM] |
| --- | --- | --- | --- | --- | --- |
| N=C(N)NCCC[C@@H](C=O)NC(=O)CNC(=O)[C@@](N)(CCC(=O)O)Cc1cccc(C(=N)N)c1 [A] | > 2500 | > 2500 | < 100 | 500 to 2500 | 250 to 500 |
| N=C(N)NCCCC(C=O)NC(=O)CNC(=O)C(CCC(=O)O)(Cc1cccc(C(=N)N)c1)NS(=O)(=O)Cc1ccccc1 (stereo not drawn) [B] | 500 to 2500 | > 2500 | < 100 | > 2500 | > 2500 |
| COC(=O)CCC(N)(Cc1cccc(C(=N)N)c1)C(=O)NCC(=O)NC(C=O)CCCNC(=N)N (stereo not drawn) [C] | > 2500 | > 2500 | < 100 | 500 to 2500 | 500 to 2500 |
| COC(=O)N[C@](CCC(=O)O)(Cc1cccc(C(=N)N)c1)C(=O)NCC(=O)N[C@H](C=O)CCCNC(=N)N [D] | > 2500 | > 2500 | < 100 | > 2500 | > 2500 |
| CC(=O)N[C@](CCC(=O)O)(Cc1cccc(C(=N)N)c1)C(=O)NCC(=O)N[C@H](C=O)CCCNC(=N)N [E] | > 2500 | > 2500 | < 100 | > 2500 | > 2500 |
| COC(=O)N[C@](CCC(=O)O)(Cc1cccc(C(=N)N)c1)C(=O)N[C@@H](C)C(=O)N[C@H](C=O)CCCNC(=N)N [F] | > 2500 | > 2500 | < 100 | 500 to 2500 | 500 to 2500 |
| COC(=O)N[C@](CCC(=O)O)(Cc1cccc(C)c1)C(=O)N[C@@H](C)C(=O)N[C@H](C=O)CCCNC(=N)N [G] | > 2500 | > 2500 | < 100 | 500 to 2500 | < 100 |
| CCNC(=O)N[C@](CCC(=O)O)(Cc1cccc(C(=N)N)c1)C(=O)NCC(=O)N[C@H](C=O)CCCNC(=N)N [H] | > 2500 | > 2500 | < 100 | > 2500 | > 2500 |
| COC(=O)N[C@](CCC(=O)O)(Cc1ccccc1)C(=O)NCC(=O)N[C@H](C=O)CCCNC(=N)N [I] | > 2500 | 500 to 2500 | < 100 | > 2500 | 500 to 2500 |
| CCOC(=O)N[C@](CCC(=O)O)(Cc1cccc(C(=N)N)c1)C(=O)NCC(=O)N[C@H](C=O)CCCNC(=N)N [K] | > 2500 | > 2500 | < 100 | > 2500 | > 2500 |
| CC(C)COC(=O)N[C@](CCC(=O)O)(Cc1cccc(C(=N)N)c1)C(=O)NCC(=O)N[C@H](C=O)CCCNC(=N)N [L] | > 2500 | > 2500 | < 100 | > 2500 | > 2500 |
| N=C(N)NCCC[C@@H](C=O)NC(=O)CNC(=O)[C@@](CCC(=O)O)(Cc1cccc(C(=N)N)c1)NC(=O)Oc1ccccc1 [M] | > 2500 | 500 to 2500 | < 100 | > 2500 | 250 to 500 |
